Conditions: Liquid, Closed cell (Static) method

N [ammonia]
Conditions	vapor or sublimation pressure [kPa]
303.12 K	1166
313.14 K	1553
323.16 K	2030
333.13 K	2609
343.13 K	3305
353.13 K	4132
363.12 K	5105
373.16 K	6243

Reference: the NIST ThermoML archive (doi:10.1021/je8001267)
